Results reported in PMC3151248, “High-Throughput Identification of Potential Minor Histocompatibility Antigens by MHC Tetramer-Based Screening: Feasibility and Limitations” (PLoS ONE, 2011).
Read-outs that look alike come from different tables or passages of the source. Peptide text beside a SMILES is read from it.

System: pMHC tetramer positive T-cell lines
Conditions: 18 h
[1] = read-out: IC50, peptide concentration required for T-cell recognition (IFN γ production), HLA-A2+ T2 cells pulsed with peptide, 10-fold dilution steps from 10ug/ml, IFN γ ELISA, value given for the group of cell lines

IC50 [nM] | Compound | IC50 [1] [nM]
~500 | CC[C@H](C)[C@H](NC(=O)[C@@H](N)CO)C(=O)N[C@@H](CCC(N)=O)C(=O)N[C@@H](CC(N)=O)C(=O)N[C@@H](Cc1ccc(O)cc1)C(=O)N[C@@H](Cc1c[nH]cn1)C(=O)N1CCC[C@H]1C(=O)N[C@@H](Cc1ccccc1)C(=O)N[C@@H](C)C(=O)O [P37 DOCK2SIQ] (H-SIQNYHPFA-OH) | –
– | CC[C@H](C)[C@H](NC(=O)[C@H](CC(=O)O)NC(=O)[C@H](CCSC)NC(=O)CNC(=O)[C@H](Cc1ccccc1)NC(=O)[C@H](CC(C)C)NC(=O)[C@H](CCC(=O)O)NC(=O)[C@H](Cc1c[nH]cn1)NC(=O)[C@H](CC(C)C)NC(=O)[C@@H](NC(=O)[C@@H](N)CCCCN)C(C)C)C(=O)O [P91 FLT3KVL] (H-KVLHELFGMDI-OH) | ~5
– | CSCC[C@H](NC(=O)[C@@H](N)CCCCN)C(=O)N[C@@H](CC(N)=O)C(=O)N[C@H](C(=O)N[C@@H](Cc1ccccc1)C(=O)N[C@@H](CC(=O)O)C(=O)N[C@H](C(=O)N[C@@H](CC(N)=O)C(=O)N[C@@H](CC(C)C)C(=O)O)[C@@H](C)O)C(C)C [P203 ATP2A3KMN] (H-KMNVFDTNL-OH) | ~500
~5 | CSCC[C@H](NC(=O)[C@@H](N)CO)C(=O)N[C@@H](CS)C(=O)N[C@@H](CCCNC(=N)N)C(=O)N[C@@H](Cc1ccccc1)C(=O)N[C@@H](CO)C(=O)N1CCC[C@H]1C(=O)N[C@@H](CC(C)C)C(=O)N[C@H](C(=O)N[C@@H](CC(C)C)C(=O)O)[C@@H](C)O [P309 HSPA6SMC] (H-SMCRFSPLTL-OH) | –
~0.05 | CC(C)C[C@H](NC(=O)[C@H](CC(C)C)NC(=O)[C@H](CC(=O)O)NC(=O)[C@H](CC(=O)O)NC(=O)[C@H](Cc1c[nH]cn1)NC(=O)[C@H](CC(C)C)NC(=O)[C@@H](N)C(C)C)C(=O)N[C@@H](CCC(=O)O)C(=O)N[C@@H](C)C(=O)O [P46 HMHA1VLH] (H-VLHDDLLEA-OH) | –
~0.05 | CC[C@H](C)[C@H](N)C(=O)N[C@@H](CCSC)C(=O)N[C@@H](C)C(=O)N[C@H](C(=O)N[C@@H](CCC(=O)O)C(=O)N[C@@H](CC(C)C)C(=O)N[C@@H](C)C(=O)N[C@@H](CCC(=O)O)C(=O)N[C@@H](CC(C)C)C(=O)O)[C@@H](C)CC [P218 MAP4K1IMA] (H-IMAIELAEL-OH) | –
~500 | CC(C)C[C@H](NC(=O)[C@@H]1CCCN1C(=O)[C@H](CC(C)C)NC(=O)[C@H](C)NC(=O)[C@H](C)NC(=O)[C@H](Cc1c[nH]c2ccccc12)NC(=O)[C@H](CC(C)C)NC(=O)[C@@H]1CCCN1C(=O)[C@H](CC(C)C)NC(=O)[C@H](CC(C)C)NC(=O)[C@@H](N)CCCNC(=N)N)C(=O)O [P104 ZFP36L2RLL] (H-RLLPLWAALPL-OH) | –
